Among the data in PubChem BioAssay AID1033 (Sanford-Burnham Center for Chemical Genomics, 2008) are Kd values, retold here.

For this experiment, the target named is Chaperone protein DnaK (Escherichia coli (strain K12)) (UniProt P0A6Y8). The experiment is described as follows: E. coli DnaK SBD ligand binding – biophysical, NMR, chaperone (AID 1033). To be noted: Purified DnaK SBD.

Active and inactive are the calls of the source. No rule for the calls is given here. A value given as a limit tells only on which side of the number the result lay.

Sequence of Chaperone protein DnaK (Escherichia coli (strain K12)) (P0A6Y8 whole entry, looked up): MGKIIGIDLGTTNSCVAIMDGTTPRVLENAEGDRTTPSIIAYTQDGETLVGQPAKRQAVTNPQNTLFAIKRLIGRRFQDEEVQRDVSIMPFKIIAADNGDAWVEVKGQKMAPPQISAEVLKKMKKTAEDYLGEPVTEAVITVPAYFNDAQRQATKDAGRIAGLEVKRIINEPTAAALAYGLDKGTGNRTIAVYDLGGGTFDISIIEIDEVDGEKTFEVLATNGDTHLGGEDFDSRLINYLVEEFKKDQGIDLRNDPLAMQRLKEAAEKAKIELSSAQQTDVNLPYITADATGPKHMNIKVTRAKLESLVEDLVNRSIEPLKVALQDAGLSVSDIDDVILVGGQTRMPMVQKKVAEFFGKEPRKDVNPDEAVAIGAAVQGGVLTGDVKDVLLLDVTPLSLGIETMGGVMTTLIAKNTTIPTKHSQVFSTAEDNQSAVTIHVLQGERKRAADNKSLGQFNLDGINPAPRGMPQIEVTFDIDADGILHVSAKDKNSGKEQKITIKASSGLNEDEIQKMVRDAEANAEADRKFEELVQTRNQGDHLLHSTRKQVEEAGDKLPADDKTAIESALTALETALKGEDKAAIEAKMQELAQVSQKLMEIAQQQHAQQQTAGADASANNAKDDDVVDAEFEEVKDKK

Regarding `CC1(C)CN=C(Nc2nc3ccccc3s2)S1`, the Kd – broadly, the free concentration of one partner at which half of the binding sites on the other are occupied at equilibrium, for simple one-to-one binding – is > 4 mM (inactive).
The same measure for `O=C1CSC(c2ccc3c(c2)OCO3)N1` (stereo not given): > 4 mM (inactive); for `CCc1cccc(C)c1NC(=O)c1cc(C)oc1C`: > 4 mM (inactive).
Then `Cc1onc(-c2ccccc2)c1CO`, with > 4 mM (inactive); and `NS(=O)(=O)c1ccc(NC(=O)C(F)(F)F)cc1`, with > 4 mM (inactive); and `CCc1noc(C)c1C(=O)Nc1ncc(C)s1`, with > 4 mM (inactive).
Take `C=CC1=C(C)/C(=C/c2[nH]c(Cc3[nH]c(/C=C4\NC(=O)C(C)=C4C=C)c(C)c3CCC(=O)O)c(CCC(=O)O)c2C)NC1=O`: the Kd is > 4 mM (inactive).
Then `CC1(C)O[C@H]2[C@H](O)C[C@](O)(C(N)=O)C[C@H]2O1`, with > 4 mM (inactive); and `Cc1ccc(C(=O)NC2=NCCS2)o1`, with > 4 mM (inactive); and `Cc1c(C(=O)Nc2cnccn2)oc2ccccc12`, with > 4 mM (inactive).
The same measure for `CC(C)(C#N)O[C@@H]1O[C@H](CO)[C@@H](O)[C@H](O)[C@H]1O`: > 4 mM (inactive); for `O=C(O)C1(S(=O)(=O)c2ccccc2)CC1`: > 4 mM (inactive).
The same measure for `O=C(/C=C/c1ccccc1)NC1CCS(=O)(=O)C1` (stereo not given): > 4 mM (inactive); for `Cc1cccc(N2C(=O)CCC2=O)n1`: > 4 mM (inactive); for `Nc1cc(C(=O)O)ccc1N1CCCCCC1`: > 4 mM (inactive).
On to `S=C(c1ccc(N2CCOCC2)cc1)N1CCOCC1`, for which the Kd is > 4 mM (inactive).
For `Nc1cc(N)nc(SCc2cccnc2)n1`, the Kd is > 4 mM (inactive).
`COc1ccc(-c2nc(C)sc2CC(=O)O)cc1`: the Kd was > 4 mM (inactive).
Then `CC1CCC(N2CCN(c3ncccn3)CC2)CC1` (stereo not given), with > 4 mM (inactive).
Regarding `Nc1ncnc(NCCOCCO)c1[N+](=O)[O-]`, the Kd is > 4 mM (inactive).
The same measure for `CCN(CC)c1nc2n(c(=O)n1)CCO2`: > 4 mM (inactive); for `NC1=NC(=O)C(CC(=O)Nc2ccccc2F)S1` (stereo not given): > 4 mM (inactive); for `Nc1cc(=O)[nH]c(=O)n1Cc1ccco1`: > 4 mM (inactive).
The same measure for `COc1ccc(-c2coc3c(O)c(OC)ccc3c2=O)cc1`: > 4 mM (inactive); for `NCc1ccc(-n2cccc2)cc1`: > 4 mM (inactive).
As to `c1cc(C(N2CCOCC2)N2CCOCC2)ccn1`, the Kd was > 4 mM (inactive).
Then `O=C(O)CN1CCNCC1`, with > 4 mM (inactive).
The same measure for `CCCc1cc2c(c(NC(C)=O)n1)c(=O)oc1ccccc12`: > 4 mM (inactive); for `O=C(Nc1ccc2[nH]ccc2c1)c1cccs1`: below 0.2 mM.
The same measure for `CSc1nc(NC(C)(C)C)nc(N2CCOCC2)n1`: > 4 mM (inactive); for `Cn1c(O)c(/C=C2\C=CC=N2)c(=O)[nH]c1=S`: > 4 mM (inactive); for `Nc1ccc(-c2cnco2)cc1`: > 4 mM (inactive).
Turning to `O=c1ccc2ccccc2o1`, the Kd was > 4 mM (inactive).
Then `O=C(O)C1=C[C@@H](O)[C@@H](O)[C@H](O)C1`, with > 4 mM (inactive); and `O=C(Nc1ccncc1)c1cncc(Br)c1`, with > 4 mM (inactive).
`CCOC(=O)CSCC(=O)Nc1nccs1`: the Kd is > 4 mM (inactive).
The same measure for `NC(=O)c1ccsc1NC(=O)c1cccnc1`: > 4 mM (inactive); for `COc1ccc(C(C)=O)c(OC)c1`: > 4 mM (inactive); for `CC(=O)Nc1c(C#N)c(C(C)(C)C)cn1C`: > 4 mM (inactive).
Turning to `O=c1c2ccccc2nc2n1CCCCN2`, the Kd was > 4 mM (inactive).
The same measure for `CCOC(=O)c1c(C)nc2cc(C)ccn12`: > 4 mM (inactive).
`NCc1cccc2nsnc12`: the Kd is > 4 mM (inactive).
Take `O=C(Nc1ccon1)c1sc2cc(F)ccc2c1Cl`: the Kd was > 4 mM (inactive).
Then `CC(=O)Nc1cccc(N2CCCC2=O)c1`, with > 4 mM (inactive); and `O=C(CSc1ncn[nH]1)c1ccc2c(c1)OCCO2`, with > 4 mM (inactive); and `COC(=O)NCc1cc2cc(Cl)ccc2[nH]1`, with > 4 mM (inactive).
`Cc1nnsc1C(=O)Nc1ccccn1`: the Kd is > 4 mM (inactive).
Then `CCOC(=O)Cn1cnc2sc3c(c2c1=O)CCC3`, with > 4 mM (inactive).
With `CNC(=O)n1ccc(C(=O)N2CCCCC2)n1`, the Kd was > 4 mM (inactive).
Take `CN(C)c1ccc2c(=O)[nH][nH]c(=O)c2c1`: the Kd was > 4 mM (inactive).
Then `O=C(Nc1cccnc1)c1c(F)c(F)c(F)c(F)c1F`, with > 4 mM (inactive).
Then `CC1(C)CC[C@]2(C(=O)O)CC[C@]3(C)C(=CCC4[C@@]5(C)CC[C@H](O)[C@@](C)(CO)C5CC[C@]43C)C2C1` (stereo not given in full), with > 4 mM (inactive); and `Nc1ccc2c(C(F)(F)F)cc(=O)oc2c1`, with > 4 mM (inactive); and `C=C1CSc2nc(=O)c3c(C)c(C)sc3n21`, with > 4 mM (inactive).
The same measure for `O=c1c2c(nc3nc(Cc4ccccc4)[nH]n13)CCC2`: > 4 mM (inactive).
On to `CC(C)NC(=O)c1cc(-n2cnnc2)ccc1Cl`, for which the Kd is > 4 mM (inactive).
In the case of `O=C(NC1=NCCS1)c1ccc(Cl)s1`, the Kd was > 4 mM (inactive).
With `O=C(O)c1cccc(CSc2ncccn2)c1`, the Kd is > 4 mM (inactive).
With `Nc1ccc(NC(=O)c2ccco2)c(Cl)c1`, the Kd was > 4 mM (inactive).
The same measure for `CNC(=O)Oc1ccc2c(c1)[C@]1(C)CCN(C)[C@@H]1N2C`: > 4 mM (inactive).
For the compound `Cc1nn(C)c(C)c1NC(=S)NC1CCCC1`, the Kd was > 4 mM (inactive).
`O=c1[nH]c(CN2CCN(CCO)CC2)nc2ccccc12`: the Kd was > 4 mM (inactive).
Then `Cc1noc(C)c1C(=O)NCc1cccs1`, with > 4 mM (inactive).
The same measure for `CCOC(=O)c1nc2ccccc2c(=O)n1N`: > 4 mM (inactive); for `CCSc1nc(N)c(NC(=O)c2ccco2)c(=O)[nH]1`: > 4 mM (inactive); for `FC(F)(F)c1nnc2ccc(N3CCOCC3)nn12`: > 4 mM (inactive).
The same measure for `Cc1ccccc1OCC(=O)O`: > 4 mM (inactive); for `CCc1ccc(/C=N/n2cnnc2)cc1`: > 4 mM (inactive); for `CC(C)=CCCC1(C)C=Cc2c(O)c3c(c(CC=C(C)C)c2O1)OC12C(=CC4CC1C(C)(C)OC2(C/C=C(/C)C(=O)O)C4O)C3=O` (stereo not given): > 4 mM (inactive).
As for `CN1C(=O)/C(=C/c2ccccc2O)NC1=S`, the Kd is > 4 mM (inactive).
The same measure for `Cc1occc1C(=O)Nc1nnc(-c2ccncc2)s1`: > 4 mM (inactive); for `O=c1cc(-c2ccccc2)oc2cc(O)c(O)c(O)c12`: > 4 mM (inactive).
Then `Nc1cccc(NC(=O)c2ccco2)c1`, with > 4 mM (inactive).
For `CS(=O)(=O)NC1CCN(Cc2ccccc2)CC1`, the Kd is > 4 mM (inactive).
Then `COc1ccc(C(N)=O)cc1NC(C)=O`, with > 4 mM (inactive).
